From publication PMC8742467, “Therapeutical interference with the epigenetic landscape of germ cell tumors: a comparative drug study and new mechanistical insights” (Clinical Epigenetics, 2022)

Assays:
[1] = tested on: histone modifications in 2102EP cells; assay: Mass spectrometry analysis of histone modifications (Mod Spec); assay type: cell-based, Human
Summary of the method: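 2102EP cells were treated for 16 h with EC50 concentrations of Quisinostat, JIB-04, Chaetocin, MZ-1, LP99, PRT4165 or GSK343, with DMSO as solvent control. After trypsin harvest, histones were extracted and analysed by mass spectrometry. Raw data were converted to z-scores.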

[2] = tested on: CC-R (cisplatin-resistant choriocarcinoma subclones); assay: XTT cell viability assay, mean per entity CC-R; assay type: cell-based; details: Homo sapiens, after 48 h
Protocol: The […] (XTT) assays were performed as described previously. In summary, for GCT and fibroblast cell lines 5 × 10^3 cells (3 × 10^3 for UC, PCa and RCC cell lines) per 96-well were seeded and different drug concentrations (see Additional file 2: Fig. S2, Additional file 3: Fig. S3) or corresponding solvents were added to the cells the following day. For drug details see Additional file 12: Table S2 C. Each condition was analyzed in four technical replicates and EC50 values were calculated by GraphPad Prism v8.

TCam-2 (SE) = assay: XTT cell viability assay, TCam-2; assay type: cell-based; details: Homo sapiens; after 48 h, XTT, n = 4; read-out: EC50 colour/symbol code, SE TCam-2
Summary of the method: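 Viability by XTT reduction after drug or solvent addition one day post-seeding; seeding density 3 × 10^3 cells/well for UC lines and 5 × 10^3 for GCT lines. Four technical replicates each; EC50 values derived by curve fitting.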

[3] = 2102EP cells, Mod Spec raw data
[4] = 2102EP, EC50, 16 h, vs solvent control

## CCCc1cc(C)[nH]c(=O)c1CNC(=O)c1cc(-c2ccnc(N3CCN(C)CC3)c2)cc2c1cnn2C(C)C [GSK343]
[1]; [3]
  H3: K122AC, % of peptide pool: 0.136%
  H3: K122UN, % of peptide pool: 99.864%
  H3: Q19ME1, % of peptide pool: 0.007707%
  H3: Q19UN, % of peptide pool: 99.9923%
  H3: Q55ME1, % of peptide pool: 0.1478%
  H3: Q55UN, % of peptide pool: 99.8522%
  H3: R42ME2, % of peptide pool: 3.196%
  H3: R42UN, % of peptide pool: 96.8039%
  H3: R49ME2, % of peptide pool: 7.636%
  H3: R49UN, % of peptide pool: 92.3639%
  H3R2UN: K4AC, % of peptide pool: 0.06759%
  H3R2UN: K4ME1, % of peptide pool: 18.4584%
  H3R2UN: K4ME2, % of peptide pool: 0.1346%
  H3R2UN: K4ME3, % of peptide pool: 0.0559%
  H3R2UN: K4UN, % of peptide pool: 81.2835%
  H3R2UN: Q5ME1, % of peptide pool: 0.1125%
  H3R2UN: Q5UN, % of peptide pool: 99.8875%
  H3.1: K27AC, % of peptide pool: 2.595%
  H3.1: K27ME1, % of peptide pool: 48.9633%
  H3.1: K27ME2, % of peptide pool: 15.6374%
  H3.1: K27ME3, % of peptide pool: 2.258%
  H3.1: K27UN, % of peptide pool: 30.5467%
  H3.1: K36AC, % of peptide pool: 0.2238%
  H3.1: K36ME1, % of peptide pool: 13.8902%
  H3.1: K36ME2, % of peptide pool: 50.2838%
  H3.1: K36ME3, % of peptide pool: 20.6064%
  H3.1: K36UN, % of peptide pool: 14.9959%
  H3.3: K27AC, % of peptide pool: 7.138%
  H3.3: K27M, % of peptide pool: 0%
  H3.3: K27ME1, % of peptide pool: 44.2688%
  H3.3: K27ME2, % of peptide pool: 12.6213%
  H3.3: K27ME3, % of peptide pool: 4.2957%
  H3.3: K27UN, % of peptide pool: 31.6757%
  H3.3: K36AC, % of peptide pool: 3.015%
  H3.3: K36ME1, % of peptide pool: 12.2658%
  H3.3: K36ME2, % of peptide pool: 51.706%
  H3.3: K36ME3, % of peptide pool: 19.9849%
  H3.3: K36UN, % of peptide pool: 13.0282%
  H4: K5AC, % of peptide pool: 7.684%
  H4: K5UN, % of peptide pool: 92.3159%
  H4: K8AC, % of peptide pool: 10.6823%
  H4: K8UN, % of peptide pool: 89.3177%
[1]; 2102EP cells, Mod Spec raw data, histone H4 K12 acetylated
  H4: K12AC, % of peptide pool: 6.039 % of peptide pool
[1]; 2102EP cells, Mod Spec raw data, histone H4 K12 unmodified
  H4: K12UN, % of peptide pool: 93.9609 % of peptide pool
[1]; 2102EP cells, Mod Spec raw data, histone H4 K16 acetylated
  H4: K16AC, % of peptide pool: 41.5696 % of peptide pool
[1]; 2102EP cells, Mod Spec raw data, histone H4 K16 unmodified
  H4: K16UN, % of peptide pool: 58.4304 % of peptide pool
[1]; 2102EP cells, Mod Spec raw data, histone H4 K20 acetylated
  H4: K20AC, % of peptide pool: 21.2904 % of peptide pool
[1]; 2102EP cells, Mod Spec raw data, histone H4 K20 dimethylated
  H4: K20ME2, % of peptide pool: 42.0499 % of peptide pool
[1]; 2102EP cells, Mod Spec raw data, histone H4 K20 monomethylated
  H4: K20ME1, % of peptide pool: 3.554 % of peptide pool
[1]; 2102EP cells, Mod Spec raw data, histone H4 K20 trimethylated
  H4: K20ME3, % of peptide pool: 1.778 % of peptide pool
[1]; 2102EP cells, Mod Spec raw data, histone H4 K20 unmodified
  H4: K20UN, % of peptide pool: 31.3272 % of peptide pool
[1]; [4]
  change of histone modifications of the expected mode of action (Mod Spec): decreased H3K27 methylation
  off-target changes of histone modifications (Mod Spec): increase of H4K20ac
[2]
  EC50: 9.06 µM
TCam-2 (SE)
  EC50: 1 to 50 µM
